{
  "source": "patent US12331135B2",
  "about": "“Anti-tyrosinase antibody for inhibiting tyrosinase and use thereof” (HAUUL BIO, priority 2019, dated 2025)",
  "assay_type_in_all_cases": "cell-based, mouse",
  "key": {"B16F10 cells [1]": {"tested_on": "B16F10 cells", "assay": "Cytotoxicity test (MTT)", "conditions": "unit assumed", "procedure": "In order to examine cytotoxicity of the TAT-α-tyrosinase scFv antibody, B16F10 cells, mouse-derived malignant melanoma cells, were cultured in a CO2 incubator at 37° C. After the culture, the cells were treated with the TAT-α-tyrosinase scFv antibody at different concentrations (0.1, 1, 5, 10, 50, 100 ppm), and then further cultured under the same culture conditions. After the culture, MTT{3-(4,5-Dimethylthiazol-2-yl)-2,5-Diphenyltetrazolium Bromide} solution was added and cultured. After that, the culture solution was removed, and DMSO (dimethyl sulfoxide) was added and shaken moderately."}, "B16F10 cells [2]": {"tested_on": "B16F10 cells", "assay": "Melanin production inhibitory effect test", "conditions": "100 ppm, absorbance 475 nm", "procedure": "To determine an inhibitory effect of the TAT-α-tyrosinase scFv antibody on melanin production in cells, B16F10 cell lines were treated with the TAT-α-tyrosinase scFv antibody and then the produced intracellular melanin content was measured. B16F10 cells, which are malignant melanoma cells, were cultured at 37° C. in the CO2 incubator. Thereafter, the cells were treated with 10 ppm of the TAT-α-tyrosinase scFv antibody and 100 ppm of arbutin as a positive control, followed by further culture under the same culture conditions. After the culture, each well was washed with PBS and 130 ul of 1 N NaOH solution was added to dissolve it at 60° C. for 1 hour."}, "B16F10 cells [3]": {"tested_on": "B16F10 cells", "assay": "Reactive oxygen species inhibitory effect test", "procedure": "In order to determine the inhibitory effect of the TAT-α-tyrosinase scFv antibody on reactive oxygen species in cells, the B16F10 cell lines were treated with the TAT-α-tyrosinase scFv antibody, and then the content of intracellular reactive oxygen species was measured using fluorescence staining. B16F10 cells, which are malignant melanoma cells, were cultured in the CO2 incubator at 37° C. Thereafter, the cells were treated with 100 ppm of the TAT-α-tyrosinase scFv antibody and 100 ppm of arbutin as a positive control, and then further cultured under the same culture conditions. After the culture, 0.2 mM hydrogen peroxide was added to each well, and then cultured for 2 hours. Carboxy-H2DCF-DA was added and reaction was carried out at 37° C. for 30 minutes. After washing with PBS, fluorescence was measured with the ELISA Reader system at 475/535 nm by re-addition of PBS, and the values are shown in Table 4."}},
  "data": [
    {"smiles": "OC[C@H]1O[C@@H](Oc2ccc(O)cc2)[C@H](O)[C@@H](O)[C@@H]1O", "note": "[Arbutin]", "values": [
      {"measurement": "Cell viability (MTT, absorbance at 570 nm), Average", "setting": "B16F10 cells [1]; 0.1 ppm", "result": 97.6, "unit": "%"},
      {"measurement": "Cell viability (MTT, absorbance at 570 nm), Average", "setting": "B16F10 cells [1]; 1 ppm", "result": 97, "unit": "%"},
      {"measurement": "Cell viability (MTT, absorbance at 570 nm), Average", "setting": "B16F10 cells [1]; 5 ppm", "result": 83.5, "unit": "%"},
      {"measurement": "Cell viability (MTT, absorbance at 570 nm), Average", "setting": "B16F10 cells [1]; 10 ppm", "result": 89.3, "unit": "%"},
      {"measurement": "Cell viability (MTT, absorbance at 570 nm), Average", "setting": "B16F10 cells [1]; 50 ppm", "result": 82.4, "unit": "%"},
      {"measurement": "Cell viability (MTT, absorbance at 570 nm), Average", "setting": "B16F10 cells [1]; 100 ppm", "result": 57.7, "unit": "%"},
      {"measurement": "Melanin biosynthesis amount (% of control), Average", "setting": "B16F10 cells [2]", "result": "66.1 % of control"},
      {"measurement": "ROS (fold of control), Average", "setting": "B16F10 cells [3]; 0.2 mM H2O2, 100 ppm", "result": "1.29 fold of control"},
      {"measurement": "ROS (fold of control), Average", "setting": "B16F10 cells [3]; non treat control (no H2O2), 100 ppm", "result": "0.82 fold of control"}
    ]}
  ]
}
